Earlier results, collected in patent US11224220B2, “Surfactant composition based on glycine betaine amide salts, process for preparing same and uses thereof” (SURFACTGREEN, priority 2018, dated 2022).

Details: prior art values (U.S. Pat. No. 7,829,521; Green Chem., 2008, 10, 310-320; WO 2013/188508 Table 5)

| surface tension [mN/m] | Compound |
| --- | --- |
| 50 | CCCCCCCCCCCCNC(=O)C[N+](C)(C)C [glycine betaine laurylamide] |
| 38 | CCCCCCCCCCCCNC(=O)C[N+](C)(C)C [pure glycine betaine amide] |
